Values belong to the compound of their own block, whether it stands above or below them.
Legend:
[1] = tested on: patient-derived tumor cell panel; experiment: Patient-derived tumor cell panel screening (Oncotest); assay type: cell-based; details: for tumor cell lines' growth inhibition / cytotoxic activity (in words): single screening concentration of 10 μM
Experimental: (§1) Based on this premise, the inhibitory activity of compounds 7a-m towards a patient-derived tumor cell panel[49] was evaluated, using a single screening concentration of 10 μM. […] In fact, it is worth mentioning that, although the data observed in a cellular assay have no direct correlation to EGFR enzymatic tests, this phenomenon is not unusual and is related to the nature of the assays itself. In enzymatic assays there is no influence of membrane permeability issues, while in cell viability assays compounds must penetrate the cell membrane and resist the cellular environment for long enough for the ligand-receptor interaction to occur and to trigger the biological activity.

BXF 1218L = experiment: PD tumor cell line growth inhibition; assay type: cell-based; details: Bladder, read-out: % inhibition (cellular growth inhibition related to negative control)
Experimental: as §1

BXF T24 = experiment: PD tumor cell line growth inhibition; assay type: cell-based; details: Bladder, read-out: % inhibition (cellular growth inhibition related to negative control)
Experimental: as §1

CNXF A172 = experiment: PD tumor cell line growth inhibition; assay type: cell-based; details: Homo sapiens, A 172, Glioblastoma, read-out: % inhibition (cellular growth inhibition related to negative control)
Experimental: as §1

CXF Colo205 = experiment: PD tumor cell line growth inhibition; assay type: cell-based; details: Homo sapiens, COLO 205, Colon, read-out: % inhibition (cellular growth inhibition related to negative control)
Experimental: as §1

CXF DIFI = experiment: PD tumor cell line growth inhibition; assay type: cell-based; details: Homo sapiens, Colon, EGFRdel-exon19 expressed, read-out: % inhibition (cellular growth inhibition related to negative control)
Experimental: as §1

CXF HCT116 = experiment: PD tumor cell line growth inhibition; assay type: cell-based; details: Homo sapiens, HCT-116, Colon, read-out: % inhibition (cellular growth inhibition related to negative control)
Experimental: as §1

CXF RKO = experiment: PD tumor cell line growth inhibition; assay type: cell-based; details: Colon, read-out: % inhibition (cellular growth inhibition related to negative control)
Experimental: as §1

CXF SW620 = experiment: PD tumor cell line growth inhibition; assay type: cell-based; details: Homo sapiens, SW-620, Colon, read-out: % inhibition (cellular growth inhibition related to negative control)
Experimental: as §1

GXA MKN45 = experiment: PD tumor cell line growth inhibition; assay type: cell-based; details: Homo sapiens, MKN-45, Stomach, read-out: % inhibition (cellular growth inhibition related to negative control)
Experimental: as §1

GXF 251L = experiment: PD tumor cell line growth inhibition; assay type: cell-based; details: Stomach, EGFRdel-exon19 expressed, read-out: % inhibition (cellular growth inhibition related to negative control)
Experimental: as §1

LIXF 575L = experiment: PD tumor cell line growth inhibition; assay type: cell-based; details: Liver, read-out: % inhibition (cellular growth inhibition related to negative control)
Experimental: as §1

LXFA 629L = experiment: PD tumor cell line growth inhibition; assay type: cell-based; details: Lung, read-out: % inhibition (cellular growth inhibition related to negative control)
Experimental: as §1

LXFA NCI-H1975 = experiment: PD tumor cell line growth inhibition; assay type: cell-based; details: Homo sapiens, Lung, read-out: % inhibition (cellular growth inhibition related to negative control)
Experimental: as §1

LXFA PC9 = experiment: PD tumor cell line growth inhibition; assay type: cell-based; details: Lung, EGFRdel-exon19 expressed, read-out: % inhibition (cellular growth inhibition related to negative control)
Experimental: as §1

LXFL 529L = experiment: PD tumor cell line growth inhibition; assay type: cell-based; details: Lung, EGFR overexpressed, read-out: % inhibition (cellular growth inhibition related to negative control)
Experimental: as §1

LXFL H460 = experiment: PD tumor cell line growth inhibition; assay type: cell-based; details: Homo sapiens, NCI-H460, Lung, read-out: % inhibition (cellular growth inhibition related to negative control)
Experimental: as §1

MAXF 401NL = experiment: PD tumor cell line growth inhibition; assay type: cell-based; details: Breast, read-out: % inhibition (cellular growth inhibition related to negative control)
Experimental: as §1

MAXF MCF7 = experiment: PD tumor cell line growth inhibition; assay type: cell-based; details: Homo sapiens, Breast, read-out: % inhibition (cellular growth inhibition related to negative control)
Experimental: as §1

MAXF MDA231 = experiment: PD tumor cell line growth inhibition; assay type: cell-based; details: Homo sapiens, MDA-MB-231, Breast, read-out: % inhibition (cellular growth inhibition related to negative control)
Experimental: as §1

MEXF 1539L = experiment: PD tumor cell line growth inhibition; assay type: cell-based; details: Melanoma, read-out: % inhibition (cellular growth inhibition related to negative control)
Experimental: as §1

MEXF 1737l = experiment: PD tumor cell line growth inhibition; assay type: cell-based; details: Melanoma, read-out: % inhibition (cellular growth inhibition related to negative control)
Experimental: as §1

MEXF 276L = experiment: PD tumor cell line growth inhibition; assay type: cell-based; details: Homo sapiens, MEXF276L, Melanoma, read-out: % inhibition (cellular growth inhibition related to negative control)
Experimental: as §1

OVXF 899L = experiment: PD tumor cell line growth inhibition; assay type: cell-based; details: Ovary, read-out: % inhibition (cellular growth inhibition related to negative control)
Experimental: as §1

PAXF 1657l = experiment: PD tumor cell line growth inhibition; assay type: cell-based; details: Pancreas, read-out: % inhibition (cellular growth inhibition related to negative control)
Experimental: as §1

PAXF 546L = experiment: PD tumor cell line growth inhibition; assay type: cell-based; details: Pancreas, read-out: % inhibition (cellular growth inhibition related to negative control)
Experimental: as §1

PRXF DU145 = experiment: PD tumor cell line growth inhibition; assay type: cell-based; details: Homo sapiens, DU-145, Prostate, read-out: % inhibition (cellular growth inhibition related to negative control)
Experimental: as §1

RXF 486L = experiment: PD tumor cell line growth inhibition; assay type: cell-based; details: Kidney, read-out: % inhibition (cellular growth inhibition related to negative control)
Experimental: as §1

RXF 786-O = experiment: PD tumor cell line growth inhibition; assay type: cell-based; details: Homo sapiens, 786-0, Kidney, read-out: % inhibition (cellular growth inhibition related to negative control)
Experimental: as §1

SXF1301L = experiment: PD tumor cell line growth inhibition; assay type: cell-based; details: Sarcoma, read-out: % inhibition (cellular growth inhibition related to negative control)
Experimental: as §1

UXF 1138L = experiment: PD tumor cell line growth inhibition; assay type: cell-based; details: Uterus, read-out: % inhibition (cellular growth inhibition related to negative control)
Experimental: as §1

EGFRwt = EGFRwt (Homo sapiens, UniProt P00533); experiment: HTRF KinEASE-TK biochemical assay (TR-FRET), EGFRwt
Experimental: (§2) An artificial substrate peptide (TK-substrate from Cisbio) was phosphorylated by EGFR. After completion of the reaction (reaction times: 25 min for wild-type, 15 min for L858R, 20 min for T790M/L858R), the reaction was stopped by addition of a buffer containing EDTA as well as, an anti-phosphotyrosine antibody labeled with europium cryptate and streptavidin labeled with the fluorophore XL665. FRET between europium cryptate and XL665 was measured after an additional hour of incubation to quantify the phosphorylation of the substrate peptide. […] Kinase and inhibitor were preincubated for 30 min (EGFR-wt) and 1 h (EGFR-L858R and EGFR-L858R/T790M) before the reaction was started by addition of ATP and substrate peptide. An EnVision multimode plate reader (Perkin Elmer) was used to measure the fluorescence of the samples at 620 nm (Eu-labeled antibody) and 665 nm (XL665 labeled streptavidin) 50 μs after excitation at 320 nm. The quotient of both intensities for reactions made with eight different inhibitor concentrations was then analyzed using the Quattro Software Suite for IC50-determination. Each reaction was performed in duplicate, and at least three independent determinations of each IC50 were made.

EGFRL858R = EGFRL858R (Homo sapiens, UniProt P00533, L858R); experiment: HTRF KinEASE-TK biochemical assay (TR-FRET), EGFR-L858R
Experimental: as §2

EGFRL858R/T790M = EGFRL858R/T790M (Homo sapiens, UniProt P00533, L858R/T790M); experiment: HTRF KinEASE-TK biochemical assay (TR-FRET), EGFR-L858R/T790M; details: for inhibitory activity on EGFRL858R/T790M (in words): enzymatic in vitro determination
Experimental: as §2

[2] = enzymatic in vitro determination

EGFRL858R, sequence (P00533 25-1210 L858R): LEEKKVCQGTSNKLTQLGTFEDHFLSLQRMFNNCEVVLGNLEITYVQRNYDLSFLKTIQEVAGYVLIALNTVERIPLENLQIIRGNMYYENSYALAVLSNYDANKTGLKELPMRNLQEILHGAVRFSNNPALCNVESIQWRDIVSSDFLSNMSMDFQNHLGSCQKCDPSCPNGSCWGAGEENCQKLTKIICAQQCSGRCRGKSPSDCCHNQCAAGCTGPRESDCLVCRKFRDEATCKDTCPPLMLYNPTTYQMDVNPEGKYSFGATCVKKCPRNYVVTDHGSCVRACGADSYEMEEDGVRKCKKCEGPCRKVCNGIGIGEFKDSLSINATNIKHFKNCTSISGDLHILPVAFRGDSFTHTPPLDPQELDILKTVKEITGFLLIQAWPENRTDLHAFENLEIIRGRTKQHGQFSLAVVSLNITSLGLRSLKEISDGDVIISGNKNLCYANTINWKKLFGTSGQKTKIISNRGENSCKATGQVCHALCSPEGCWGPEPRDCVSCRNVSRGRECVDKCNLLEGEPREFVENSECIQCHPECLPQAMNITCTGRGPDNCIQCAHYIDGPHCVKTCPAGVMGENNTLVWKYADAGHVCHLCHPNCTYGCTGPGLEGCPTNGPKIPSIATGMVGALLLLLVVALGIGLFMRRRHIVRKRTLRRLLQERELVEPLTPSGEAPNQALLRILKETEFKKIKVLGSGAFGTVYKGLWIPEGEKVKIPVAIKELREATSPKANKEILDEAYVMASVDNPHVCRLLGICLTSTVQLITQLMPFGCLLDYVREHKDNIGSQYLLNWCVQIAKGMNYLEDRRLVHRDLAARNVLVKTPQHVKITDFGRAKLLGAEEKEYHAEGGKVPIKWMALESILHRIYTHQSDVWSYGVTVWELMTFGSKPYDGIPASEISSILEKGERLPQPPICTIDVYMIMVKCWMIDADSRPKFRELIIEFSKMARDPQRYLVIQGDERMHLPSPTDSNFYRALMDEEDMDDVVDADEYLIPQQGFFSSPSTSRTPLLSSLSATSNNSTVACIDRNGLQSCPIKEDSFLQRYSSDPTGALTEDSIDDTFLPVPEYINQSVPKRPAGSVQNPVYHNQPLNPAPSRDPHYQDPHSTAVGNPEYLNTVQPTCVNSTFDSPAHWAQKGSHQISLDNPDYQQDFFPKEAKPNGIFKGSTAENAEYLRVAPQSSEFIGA
EGFRL858R/T790M, sequence (P00533 25-1210 T790M/L858R): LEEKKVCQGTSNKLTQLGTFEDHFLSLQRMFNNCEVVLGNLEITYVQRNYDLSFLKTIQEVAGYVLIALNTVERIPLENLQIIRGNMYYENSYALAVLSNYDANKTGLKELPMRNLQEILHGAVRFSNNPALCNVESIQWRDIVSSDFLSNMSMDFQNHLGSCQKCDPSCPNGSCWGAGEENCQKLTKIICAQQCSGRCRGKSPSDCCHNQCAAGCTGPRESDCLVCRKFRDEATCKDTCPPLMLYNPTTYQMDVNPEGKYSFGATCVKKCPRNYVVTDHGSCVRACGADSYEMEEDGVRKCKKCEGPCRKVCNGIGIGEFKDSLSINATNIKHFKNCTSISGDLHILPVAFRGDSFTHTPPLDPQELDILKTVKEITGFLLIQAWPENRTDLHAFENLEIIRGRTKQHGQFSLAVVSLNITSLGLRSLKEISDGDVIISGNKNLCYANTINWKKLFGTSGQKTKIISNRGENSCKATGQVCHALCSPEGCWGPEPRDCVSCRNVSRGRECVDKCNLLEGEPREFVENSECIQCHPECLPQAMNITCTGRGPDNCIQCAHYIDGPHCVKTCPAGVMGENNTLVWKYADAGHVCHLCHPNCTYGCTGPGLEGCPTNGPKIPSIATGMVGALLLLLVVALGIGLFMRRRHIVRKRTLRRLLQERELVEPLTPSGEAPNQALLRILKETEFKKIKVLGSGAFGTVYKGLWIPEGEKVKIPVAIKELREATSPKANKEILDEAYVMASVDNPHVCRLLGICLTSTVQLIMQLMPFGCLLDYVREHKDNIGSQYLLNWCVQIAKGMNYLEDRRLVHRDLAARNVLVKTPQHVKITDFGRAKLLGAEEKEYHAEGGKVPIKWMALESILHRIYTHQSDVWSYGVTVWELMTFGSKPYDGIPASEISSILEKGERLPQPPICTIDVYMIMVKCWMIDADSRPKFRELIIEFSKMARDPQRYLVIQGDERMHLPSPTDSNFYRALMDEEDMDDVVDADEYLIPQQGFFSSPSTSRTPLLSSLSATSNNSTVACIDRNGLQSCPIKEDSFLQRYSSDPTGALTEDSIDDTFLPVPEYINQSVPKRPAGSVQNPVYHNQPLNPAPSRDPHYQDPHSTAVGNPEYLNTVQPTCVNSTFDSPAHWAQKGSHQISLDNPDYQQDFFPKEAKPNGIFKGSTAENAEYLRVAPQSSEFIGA
EGFRwt, sequence (P00533 25-1210): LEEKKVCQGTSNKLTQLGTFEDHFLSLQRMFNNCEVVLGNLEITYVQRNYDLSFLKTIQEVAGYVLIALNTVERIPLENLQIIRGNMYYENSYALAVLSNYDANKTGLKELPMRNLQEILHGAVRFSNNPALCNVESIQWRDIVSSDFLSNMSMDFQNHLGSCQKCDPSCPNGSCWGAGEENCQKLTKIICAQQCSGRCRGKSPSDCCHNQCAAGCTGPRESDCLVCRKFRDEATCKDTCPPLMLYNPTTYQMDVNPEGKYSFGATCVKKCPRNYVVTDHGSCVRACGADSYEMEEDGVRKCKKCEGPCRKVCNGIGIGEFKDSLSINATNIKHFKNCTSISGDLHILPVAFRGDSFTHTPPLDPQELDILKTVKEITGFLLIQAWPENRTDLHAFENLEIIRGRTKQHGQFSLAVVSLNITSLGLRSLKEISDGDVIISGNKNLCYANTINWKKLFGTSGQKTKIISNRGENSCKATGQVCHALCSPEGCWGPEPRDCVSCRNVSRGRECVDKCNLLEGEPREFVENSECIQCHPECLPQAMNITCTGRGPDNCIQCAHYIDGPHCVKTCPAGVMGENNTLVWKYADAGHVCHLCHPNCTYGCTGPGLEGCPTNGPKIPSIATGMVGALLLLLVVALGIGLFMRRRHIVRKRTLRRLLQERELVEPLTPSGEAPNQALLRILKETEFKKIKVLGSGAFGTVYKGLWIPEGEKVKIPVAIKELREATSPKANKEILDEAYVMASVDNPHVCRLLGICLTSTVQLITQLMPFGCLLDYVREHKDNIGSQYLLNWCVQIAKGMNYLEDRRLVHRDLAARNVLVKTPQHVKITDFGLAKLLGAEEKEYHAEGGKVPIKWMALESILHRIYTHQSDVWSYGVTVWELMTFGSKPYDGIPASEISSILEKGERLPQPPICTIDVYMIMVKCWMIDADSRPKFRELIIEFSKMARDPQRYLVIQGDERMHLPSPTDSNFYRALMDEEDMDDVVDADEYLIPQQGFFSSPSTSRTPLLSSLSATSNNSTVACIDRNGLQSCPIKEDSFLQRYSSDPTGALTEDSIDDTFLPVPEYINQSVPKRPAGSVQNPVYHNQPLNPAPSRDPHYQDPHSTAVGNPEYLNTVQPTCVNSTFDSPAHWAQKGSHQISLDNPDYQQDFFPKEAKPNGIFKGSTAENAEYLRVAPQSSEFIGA

Compound: C/C=C/C(=O)Nc1ccc2ncc(NC(=O)Nc3ccc(Cl)c(C(F)(F)F)c3)nc2c1 [Compound 7b, (E)-N-(3-(3-(4-chloro-3-(trifluoromethyl)phenyl)ureido)quinoxalin-6-yl)but-2-enamide]
melting point: 277 to 280 °C
IC50 (EGFRwt): > 10000 nM
IC50 (EGFRL858R): > 10000 nM
IC50 (EGFRL858R/T790M): > 10000 nM

Compound: CN(C)C/C=C/C(=O)Nc1ccc2ncc(NC(=O)Nc3ccc(Cl)c(C(F)(F)F)c3)nc2c1 [Compound 7e, (E)-N-(3-(3-(4-chloro-3-(trifluoromethyl)phenyl)ureido)quinoxalin-6-yl)-4-(dimethylamino)but-2-enamide]
melting point: 217 to 220 °C
IC50 (EGFRwt): > 10000 nM
IC50 (EGFRL858R): > 10000 nM
IC50 (EGFRL858R/T790M): 6140 ± 3470 nM

Compound: O=C(CCl)Nc1ccc2ncc(NC(=O)Nc3ccc(Cl)c(C(F)(F)F)c3)nc2c1 [Compound 7c, 2-chloro-N-(3-(3-(4-chloro-3-(trifluoromethyl)phenyl)ureido)quinoxalin-6-yl)acetamide]
melting point: 253 to 255 °C
IC50 (EGFRwt): > 10000 nM
IC50 (EGFRL858R): 3240 ± 1260 nM
IC50 (EGFRL858R/T790M): 2710 ± 412 nM

These reach a lower IC50 (EGFRwt). Values come first.

IC50 (EGFRwt): 25 ± 4 nM
IC50 (EGFRL858R): 18 ± 3 nM
IC50 (EGFRL858R/T790M): 1680 ± 1510 nM
inhibitory activity on EGFRL858R/T790M (in words) (EGFRL858R/T790M): weak inhibition
Compound: C=CC(=O)Nc1ccc2ncc(NC(=O)Nc3ccccc3)nc2c1 [Compound 7h, N-(3-(3-phenylureido)quinoxalin-6-yl)acrylamide]
inhibition at 10 µM ([1]; 10 μM, GXF 251L, CXF DiFi, LXFA PC9, LXFL 529L and LXFA NCI-H1975 cell lines, read-out: growth inhibition effect): 55 to 77%
tumor cell lines' growth inhibition / cytotoxic activity (in words) [1]: important cytotoxic activity
inhibition at 10 µM (BXF 1218L): 84%
inhibition at 10 µM (BXF T24): 76%
inhibition at 10 µM (CNXF A172): 86%
inhibition at 10 µM (CXF Colo205): 56%
inhibition at 10 µM (CXF DIFI): 77%
inhibition at 10 µM (CXF HCT116): 92%
inhibition at 10 µM (CXF RKO): 82%
inhibition at 10 µM (CXF SW620): 82%
inhibition at 10 µM (GXA MKN45): 8%
inhibition at 10 µM (GXF 251L): 55%
inhibition at 10 µM (LIXF 575L): 40%
inhibition at 10 µM (LXFA 629L): 76%
inhibition at 10 µM (LXFA NCI-H1975): 68%
inhibition at 10 µM (LXFA PC9): 75%
inhibition at 10 µM (LXFL 529L): 74%
inhibition at 10 µM (LXFL H460): 33%
inhibition at 10 µM (MAXF 401NL): 72%
inhibition at 10 µM (MAXF MCF7): 76%
inhibition at 10 µM (MAXF MDA231): 67%
inhibition at 10 µM (MEXF 1539L): 93%
inhibition at 10 µM (MEXF 1737l): 15%
inhibition at 10 µM (MEXF 276L): 88%
inhibition at 10 µM (OVXF 899L): 87%
inhibition at 10 µM (PAXF 1657l): 89%
inhibition at 10 µM (PAXF 546L): 58%
inhibition at 10 µM (PRXF DU145): 91%
inhibition at 10 µM (RXF 486L): 86%
inhibition at 10 µM (RXF 786-O): 80%
inhibition at 10 µM (SXF1301L): 89%
inhibition at 10 µM (UXF 1138L): 91%

melting point: 268 to 271 °C
IC50 (EGFRwt): 2500 ± 735 nM
inhibitory activity on EGFRwt (in words) (EGFRwt; [2]): weak activity
IC50 (EGFRL858R): 2160 ± 1620 nM
inhibitory activity on EGFRL858R (in words) (EGFRL858R; [2]): weak activity
IC50 (EGFRL858R/T790M): > 10000 nM
inhibitory activity on EGFRL858R/T790M (in words) (EGFRL858R/T790M): no inhibitory activity
Compound: C=CC(=O)Nc1ccc2ncc(NC(=O)Nc3cccc(C(F)(F)F)c3)nc2c1 [Compound 7f, N-(3-(3-(3-(trifluoromethyl)phenyl)ureido)quinoxalin-6-yl)acrylamide]

IC50 (EGFRwt): 101 ± 12 nM
IC50 (EGFRL858R): 32 ± 14 nM
IC50 (EGFRL858R/T790M): 132 ± 49 nM
Compound: CN(C)C/C=C/C(=O)Nc1ccc2ncc(NC(=O)Nc3ccccc3)nc2c1 [Compound 7l, (E)-4-(dimethylamino)-N-(3-(3-phenylureido)quinoxalin-6-yl)but-2-enamide]
tumor cell lines' growth inhibition / cytotoxic activity (in words) [1]: did not inhibit the Oncotest® tumor cell lines’ growth in a significant manner
